From patent US20030158041A1, “Methods of and compositions for plant defoliation” (priority 2001, published 2003)

Tested on: American upland cotton
Test: Spray treatment of mature American upland cotton, evaluated 10, 14 and 21 days after treatment
Type: in vivo
[1] = 10 days after treatment, (+) EBNG = 0.13 lb/acre
[2] = 14 days after treatment, (+) EBNG = 0.13 lb/acre
[3] = 21 days after treatment, (+) EBNG = 0.13 lbs/acre

SMILES: CCC(NC(=N)N[N+](=O)[O-])c1ccccc1 (single isomer, unassigned; (+)) [(+) EBNG, (+)-1-(α-ethylbenzyl)-3-nitroguanidine]
- % Dead Leaves On Plants [1]: 8.3%
- % Dropped Leaves [1]: 90.0%
- % Dead Leaves On Plants [2]: 5.7%
- % Dropped Leaves [2]: 93.0%
- % New Growth Leaves [2]: 1.0%
- % Open Fruits [2]: 96.0%
- % New Growth Leaves [3]: 3.7%
- % Open Fruits [3]: 98.3%
